Data taken from patent publication US5919771A, “Urea and thiourea derivatives of glycopeptides” (Eli Lilly and Company, priority 1998, dated 1999).

Legend:
Format in all cases: cell-based
[1] = tested on: Enterococcus faecium and faecalis (RESISTANT); conditions: geometric mean of 4-6 isolates
Experimental: (§1) The antibacterial efficacy of the present compounds is illustrated by Table II. The minimal inhibitory concentrations (MICs) were determined using a standard broth micro-dilution assay.

[2] = tested on: Enterococcus faecium and faecalis (SENSITIVE); conditions: geometric mean of 4-6 isolates
Experimental: as §1

[3] = tested on: Staphylococcus aureus 446; assay: MIC, standard broth micro-dilution assay, SA 446
Experimental: as §1

[4] = tested on: Staphylococcus aureus 489; assay: MIC, standard broth micro-dilution assay, SA 489
Experimental: as §1

[5] = tested on: Staphylococcus aureus 447; assay: MIC, standard broth micro-dilution assay, SA 447
Experimental: as §1

[6] = tested on: Staphylococcus haemolyticus 105; assay: MIC, standard broth micro-dilution assay, SH 105
Experimental: as §1

[7] = tested on: Staphylococcus haemolyticus 415; assay: MIC, standard broth micro-dilution assay, SH 415
Experimental: as §1

[8] = tested on: Staphylococcus epidermidis 270; assay: MIC, standard broth micro-dilution assay, SE 270
Experimental: as §1

[9] = tested on: Streptococcus pyogenes C203; assay: MIC, standard broth micro-dilution assay, SPY C203
Experimental: as §1

[10] = tested on: Streptococcus pneumoniae P1; assay: MIC, standard broth micro-dilution assay, SPN P1
Experimental: as §1

Compound: CC(C)CC(C(=O)NC1C(=O)NC(CC(N)=O)C(=O)NC2C(=O)NC3C(=O)NC(C(=O)NC(C(=O)O)c4cc(O)cc(O)c4-c4cc3ccc4O)C(OC3CC(C)(N)C(O)C(C)O3)c3ccc(c(Cl)c3)Oc3cc2cc(c3OC2OC(CO)C(O)C(O)C2OC2CC(C)(NCc3ccc(Oc4ccccc4)cc3)C(O)C(C)O2)Oc2ccc(cc2Cl)C1O)N(C)C(=S)Nc1cccc2ccccc12 (stereo not drawn) [Example 7, N^LEU -(1-NAPHTHYLTHIOCARBAMOYL)-N^DISACC -(p-PHENOXYBENZYL)A82846B]
- Minimal Inhibitory Concentration (MIC) RESISTANT [1]: 19
- Minimal Inhibitory Concentration (MIC) SENSITIVE [2]: 3
- Minimal Inhibitory Concentration (MIC) SA 446 [3]: 4
- Minimal Inhibitory Concentration (MIC) SA 489 [4]: 2
- Minimal Inhibitory Concentration (MIC) SA 447 [5]: 1
- Minimal Inhibitory Concentration (MIC) SH 105 [6]: 4
- Minimal Inhibitory Concentration (MIC) SH 415 [7]: 2
- Minimal Inhibitory Concentration (MIC) SE 270 [8]: 0.5
- Minimal Inhibitory Concentration (MIC) SPY C203 [9]: 0.25
- Minimal Inhibitory Concentration (MIC) SPN P1 [10]: ≤ 0.06

Compound: CC(C)CC(C(=O)NC1C(=O)NC(CC(N)=O)C(=O)NC2C(=O)NC3C(=O)NC(C(=O)NC(C(=O)O)c4cc(O)cc(O)c4-c4cc3ccc4O)C(OC3CC(C)(N)C(O)C(C)O3)c3ccc(c(Cl)c3)Oc3cc2cc(c3OC2OC(CO)C(O)C(O)C2OC2CC(C)(NCc3ccc(Cl)cc3)C(O)C(C)O2)Oc2ccc(cc2Cl)C1O)N(C)C(=S)Nc1cccc2ccccc12 (stereo not drawn) [Example 6, N^LEU -(1-NAPHTHYLTHIOCARBAMOYL)-N^DISACC -(p-CHLOROBENZYL)A82846B]
- Minimal Inhibitory Concentration (MIC) RESISTANT [1]: 128
- Minimal Inhibitory Concentration (MIC) SENSITIVE [2]: 5
- Minimal Inhibitory Concentration (MIC) SA 446 [3]: 2
- Minimal Inhibitory Concentration (MIC) SA 489 [4]: 16
- Minimal Inhibitory Concentration (MIC) SA 447 [5]: 4
- Minimal Inhibitory Concentration (MIC) SH 105 [6]: 4
- Minimal Inhibitory Concentration (MIC) SH 415 [7]: 8
- Minimal Inhibitory Concentration (MIC) SE 270 [8]: 64
- Minimal Inhibitory Concentration (MIC) SPY C203 [9]: ≤ 0.06
- Minimal Inhibitory Concentration (MIC) SPN P1 [10]: ≤ 0.06

Compound: CCCCc1ccc(NC(=S)N(C)C(CC(C)C)C(=O)NC2C(=O)NC(CC(N)=O)C(=O)NC3C(=O)NC4C(=O)NC(C(=O)NC(C(=O)O)c5cc(O)cc(O)c5-c5cc4ccc5O)C(OC4CC(C)(N)C(O)C(C)O4)c4ccc(c(Cl)c4)Oc4cc3cc(c4OC3OC(CO)C(O)C(O)C3OC3CC(C)(NCc4ccc(Oc5ccccc5)cc4)C(O)C(C)O3)Oc3ccc(cc3Cl)C2O)cc1 (stereo not drawn) [Example 18, N^LEU -((p-n-BUTYLPHENYL)-THIOCARBAMOYL)-N^DISACC -(p-PHENOXYBENZYL)A82846B]
- Minimal Inhibitory Concentration (MIC) RESISTANT [1]: 4.7
- Minimal Inhibitory Concentration (MIC) SENSITIVE [2]: 1.7
- Minimal Inhibitory Concentration (MIC) SA 446 [3]: 2
- Minimal Inhibitory Concentration (MIC) SA 489 [4]: 2
- Minimal Inhibitory Concentration (MIC) SA 447 [5]: 2
- Minimal Inhibitory Concentration (MIC) SH 105 [6]: 2
- Minimal Inhibitory Concentration (MIC) SH 415 [7]: 2
- Minimal Inhibitory Concentration (MIC) SE 270 [8]: 2
- Minimal Inhibitory Concentration (MIC) SPY C203 [9]: 0.25
- Minimal Inhibitory Concentration (MIC) SPN P1 [10]: 2
